Data from patent publication US20210008118A1, “METHOD FOR ENHANCING MIGRATION OF STEM CELLS INTO CANCER CELLS” (GACHON UNIVERSITY OF INDUSTRY-ACADEMIC COOPERATION …, priority 2019, published 2021).

System: mesenchymal stem cells (BMMSCs, ADMSCs) migrating into cancer cells (A549, H1975, PANC-1, U87MG)
Assay: Transwell migration of stem cells treated with ion channel inhibitor DIDS or ion channel antibodies
Type: cell-based
Details: 500 μM DIDS or ion channel antibodies; all cancer cells used (A549, H1975, PANC-1, U87MG)
Description: In vitro mobility measurement of stem cells according to an embodiment of the present invention was performed using a transwell membrane bilayer plate having a pore size of 8 μm. Cancer cells for stimulating the stem cells were cultured in the layer under the membrane, and the stem cells were cultured in the upper chamber to allow the cells to penetrate downward. At this time, the mobility was measured through the number of stem cells infiltrated the membrane.
In order to investigate the effect of ion channel activity on the ability of stem cells to migrate into cancer cells, the present inventors performed an analysis similar to Example 1-1 using DIDS (4,4′-Diisothiocyano-2,2′-stilbenedisulfonic acid) which is an ion channel inhibitor and antibodies specifically binding to ion channels (SLC4A4, SLC4A7). Particularly, in the case of lung cancer cells, 5×10^4 of bone marrow-derived mesenchymal stem cells (BMMSCs) as a control group and lung cancer cells (A549 and H1975) as an experimental group were dispensed onto the lower well, respectively, and cultured at 37° C. for 24 hours. […] Subsequently, stem cells migrated into the lower well through the transwell membrane were counted trough a confocal fluorescence microscope in order to measure their mobility (FIGS. 3A to 4D).

## O=S(=O)(O)c1cc(N=C=S)ccc1C=Cc1ccc(N=C=S)cc1S(=O)(=O)O [DIDS, 4,4′-Diisothiocyano-2,2′-stilbenedisulfonic acid]
  ability of the mesenchymal stem cells to migrate into cancer cells: decreased significantly
